{"source": "patent US10226493B2", "about": "“Coriolus versicolor extracts, methods of preparation and uses thereof” (priority 2010, dated 2019)", "tested_on": "herpes simplex virus (HSV)", "test": "HSV infection in mice, disease severity by hind-limb paralysis score", "assay_type": "in vivo", "settings": "male BALB/c mice, ip once a day; MPUB-EtOH 250 mg/kg, acyclovir 10 mg/kg; versus DMSO-treated controls; FIG. 10", "experimental": "To investigate the antiviral effects of C. versicolor extract in vivo, 3-week-old male BALB/c mice (15 mice per group) were administrated intraperitoneally (ip) with dimethyl sulfoxide (DMSO) (solvent for MPUB-EtOH) or MPUB-EtOH (250 mg/kg) once a day at 24 hr intervals for […].\nBriefly, the mice were infected with inoculation of HSV ip at 1×10^5 TCID50/ml at day 0. DMSO, MPUB-EtOH or acyclovir (10 mg/kg) were administrated ip once a day at 24 hr intervals for 5 days starting 1 hr after infection. The mice were inspected daily and the disease severity was measured by hind-limb(s) paralysis based on the following scoring system: 0, no paralysis; 1, obvious difficulty in movement of hind limbs; 2, one hind limb incomplete paralysis; 3, one hind limb complete paralysis; 4, both hind limbs incomplete paralysis; 5, both hind limbs complete paralysis.", "data": [{"smiles": "Nc1nc2c(ncn2COCCO)c(=O)[nH]1", "note": "[acyclovir]", "values": [{"measurement": "severity of HSV infection (hind-limb paralysis score 0-5)", "result": "comparable"}]}]}
